Test results taken from patent publication US20230310634A1, “ANTI-HUMAN VISTA ANTIBODIES AND USE THEREOF” (IMMUNEXT, INC., priority 2020, published 2023).
“Also recorded” adds a separate entry of the source. Counter-ions that a name gives are not always drawn.

How the values were obtained:
[1] = test system: peritoneal resident macrophages; assay: In vivo treatment / ex vivo activation of peritoneal resident macrophages (TNFα, IL-6); parameters: species or system mice; conditions: Experiment 9, 0.2 mg/Kg of GC payload, day −7, supernatants at 24 h
[2] = test system: LPS-induced cytokine release; assay: LPS-induced systemic inflammation, plasma cytokines post LPS; parameters: species or system mice; conditions: mouse, in vivo
Description: In order to evaluate the ADC potential efficacy in auto-immune diseases, we used the short-term model of LPS-induced systemic inflammation. Intraperitoneal (i.p.) injection of lipopolysaccharide (LPS) is widely used as a model for acute immune response—both local and systemic—in mice.
Blood was collected at 2 or 4 h post LPS i.p. injection, and plasma isolated for cytokine analyses.
Mice were dosed at 0.5 mg/Kg.
For ADC-INVIVO-30 and 35, the Immune Monitoring Lab (IML, Shared Resources at Dartmouth-Hitchcock Norris Cotton Cancer Center) performed the analyses.
ELISAs were conducted following the manufacturer's included protocol.
Cytokine data are censored when below a […] threshold for IL-12p40 and/or […] threshold for TNF-α as it indicates a failed LPS injection.

[3] = test system: LPS stimulated human PBMCs; assay: In vitro potency of steroid payloads in LPS stimulated human PBMCs (IL-1β, IL-6 ELISA); type: cell-based; conditions: for IL-1β and IL-6 production: Experiment 1, 1000-1 nM; for IL-1β and IL-6 production / IL-1β production: 1 ng/mL LPS, 24 hr
[4] = Experiment 2, 1000-1 nM, n=1 donor

## C[C@]12C=CC(=O)C=C1[C@@H](F)C[C@H]1[C@@H]3C[C@H]4O[C@@H](c5ccc(CC67CC(NC(=O)[C@H](CCC(=O)O)NC(=O)CNC(=O)CBr)(C6)C7)cc5)O[C@@]4(C(=O)CO)[C@@]3(C)C[C@H](O)[C@@]12F [INX S, (S)-4-(2-(2-bromoacetamido)acetamido)-5-((3-(4-((2S,6aS,6bR,7S,8aS,8bS, 10R,11 aR,12aS,12bS)-2,6b-difluoro-7-hydroxy-8b-(2-hydroxyacetyl)-6a,8a-dimethyl-4-oxo-2,4,6a,6b,7,8,8a,8b,11a,12,12a,12b-dodecahydro-1H-naphtho[2′,1′:4,5]indeno[1,2-d][1,3]dioxol-10-yl)benzyl)bicyclo [1.1.1]pentan-1-yl)amino)-5-oxopentanoic acid]
[1]
  long term potency in controlling PRM cytokine responses (TNFα, IL-6): remarkable long term potency; also recorded: increased potency relative to INX P

## CC12C=CC(=O)C=C1CCC1C2C(O)CC2(C)C1CC1OC(c3ccc(Cc4cnc(NC(=O)C(CCC(=O)O)NC(=O)CNC(=O)CBr)s4)cc3)OC12C(=O)CO [INX N, (S)-4-(2-(2-bromoacetamido)acetamido)-5-((5-(4-((6aR,6bS,7S,8aS,8bS,10R,11aR,12aS,12bS)-7-hydroxy-8b-(2-hydroxyacetyl)-6a,8a-dimethyl-4-oxo-2,4,6a,6b,7,8,8a,8b,11a,12,12a,12b-dodecahydro-1H-naphtho[2′,1′:4,5]indeno[1,2-d][1,3]dioxol-10-yl)benzyl)thiazol-2-yl)amino)-5-oxopentanoic acid]
[2]
  potency of conjugated linker/payload in the short term LPS activation model (conclusions): no potency

## C[C@]12C=CC(=O)C=C1CC[C@@H]1[C@@H]2[C@@H](O)C[C@@]2(C)[C@H]1C[C@H]1O[C@@H](C34CC(Cc5cccc(N)c5)(C3)C4)O[C@]12C(=O)CO [INX-SM-4, (6aR,6bS,7S,8aS,8bS,10R,11aR,12aS,12bS)-10-(3-(3-aminobenzyl)bicyclo[1.1.1]pentan-1-yl)-7-hydroxy-8b-(2-hydroxyacetyl)-6a,8a-dimethyl-1,2,6a,6b,7,8,8a,8b,11a,12,12a,12b-dodecahydro-4H-naphtho[2′,1′:4,5]indeno[1,2-d][1,3]dioxol-4-one]
[3]
  steroid potency as free payloads in LPS-activated human PBMCS (conclusions): varying degrees of dose dependent steroid potency
[3]; n=1 donor
  IL-1β and IL-6 production: inhibit both IL-1β and IL-6 production
[3]; [4]
  IL-1β production: show inhibition in IL-1β production

## C[C@H](NC(=O)CBr)C(=O)N[C@@H](C)C(=O)NC12CC(Cc3ccc([C@@H]4O[C@@H]5C[C@H]6[C@@H]7CCC8=CC(=O)C=C[C@]8(C)[C@H]7[C@@H](O)C[C@]6(C)[C@]5(C(=O)CO)O4)cc3)(C1)C2 [INX R, (S)-2-(2-bromoacetamido)-N—((S)-1-((3-(4-((6aR,6bS,7S,8aS,8bS,10R,11aR, 12aS,12bS)-7-hydroxy-8b-(2-hydroxyacetyl)-6a,8a-dimethyl-4-oxo-2,4,6a,6b,7,8,8a,8b,11a,12,12a,12b-dodecahydro-1H-naphtho[2′,1′:4,5]indeno[1,2-d][1,3]dioxol-10-yl)benzyl)bicyclo [1.1.1]pentan-1-yl)amino)-1-oxopropan-2-yl)propanamide]
[2]
  potency of conjugated linker/payload in the short term LPS activation model (conclusions): efficacious

## C[C@]12C=CC(=O)C=C1CC[C@@H]1[C@@H]2[C@@H](O)C[C@@]2(C)[C@H]1C[C@H]1O[C@@H](c3ccc(CC45CC(NC(=O)[C@H](CCC(=O)O)NC(=O)CNC(=O)CBr)(C4)C5)cc3)O[C@]12C(=O)CO [INX P, (S)-4-(2-(2-bromoacetamido)acetamido)-5-((3-(4-((6aR,6bS,7S,8aS,8bS,10R,11 aR,12aS,12bS)-7-hydroxy-8b-(2-hydroxyacetyl)-6a,8a-dimethyl-4-oxo-2,4,6a,6b,7,8,8a,8b,11a,12,12a,12b-dodecahydro-1H-naphtho[2′,1′:4,5]indeno[1,2-d][1,3]dioxol-10-yl)benzyl)bicycle[1.1.1]pentan-1-yl)amino)-5-oxopentanoic acid]
[2]
  potency of conjugated linker/payload in the short term LPS activation model (conclusions): more potent

## C[C@]12C=CC(=O)C=C1CC[C@@H]1[C@@H]2[C@@H](O)C[C@@]2(C)[C@H]1C[C@H]1O[C@H](C34CC(Cc5cccc(N)c5)(C3)C4)O[C@]12C(=O)CO [INX-SM-54, (6aR,6bS,7S,8aS,8bS,10S,11aR,12aS,12bS)-10-(3-(3-aminobenzyl)bicyclo[1.1.1]pentan-1-yl)-7-hydroxy-8b-(2-hydroxyacetyl)-6a,8a-dimethyl-1,2,6a,6b,7,8,8a,8b,11a,12,12a,12b-dodecahydro-4H-naphtho[2′,1′:4,5]indeno[1,2-d][1,3]dioxol-4-one]
[3]
  steroid potency as free payloads in LPS-activated human PBMCS (conclusions): did not show potency
[3]; n=1 donor
  IL-1β and IL-6 production: did not show inhibition

## C[C@]12C=CC(=O)C=C1CC[C@@H]1[C@@H]2[C@@H](O)C[C@@]2(C)[C@H]1C[C@H]1O[C@@H](c3ccc(Cc4cnc(N)s4)cc3)O[C@]12C(=O)CO [INX-SM-1, (6aR,6bS,7S,8aS,8bS,10R,11aR,12aS,12bS)-10-(4-((2-aminothiazol-5-yl)methyl)phenyl)-7-hydroxy-8b-(2-hydroxyacetyl)-6a,8a-dimethyl-1,2,6a,6b,7,8,8a,8b,11a,12,12a,12b-dodecahydro-4H-naphtho[2′,1′:4,5]indeno[1,2-d][1,3]dioxol-4-one AcOH salt]
[3]
  steroid potency as free payloads in LPS-activated human PBMCS (conclusions): varying degrees of dose dependent steroid potency
[3]; n=1 donor
  IL-1β and IL-6 production: inhibit both IL-1β and IL-6 production
[3]; [4]
  IL-1β production: show inhibition in IL-1β production

## C[C@]12C=CC(=O)C=C1CC[C@@H]1[C@@H]2[C@@H](O)C[C@@]2(C)[C@H]1C[C@H]1OC(c3ccc(CC4(N)CC(F)(F)C4)cc3)O[C@]12C(=O)CO (stereo partly drawn) [INX-SM-35, (6aR,6bS,7S,8aS,8bS,10R,11aR,12aS,12bS)-10-(4-((1-amino-3,3-difluorocyclobutyl)methyl)phenyl)-7-hydroxy-8b-(2-hydroxyacetyl)-6a,8a-dimethyl 1,2,6a,6b,7,8,8a,8b,11a,12,12a,12b-dodecahydro-4H-naphtho[2′,1′:4,5]indeno[1,2-d][1,3]dioxol-4-one]
[3]
  steroid potency as free payloads in LPS-activated human PBMCS (conclusions): varying degrees of dose dependent steroid potency
[3]; Experiment 3, 1000-0.2 nM, n=2 donors
  IL-1β production: dose dependent inhibition

## C[C@]12C=CC(=O)C=C1[C@@H](F)C[C@H]1[C@@H]3C[C@H]4O[C@H](c5ccc(CC67CC(N)(C6)C7)cc5)O[C@@]4(C(=O)CO)[C@@]3(C)C[C@H](O)[C@@]12F [INX-SM-74, (2S,6aS,6bR,7S,8aS,8bS,10S,11aR,12aS,12bS)-10-(4-((3-aminobicyclo[1.1.1]pentan-1-yl)methyl)phenyl)-2,6b-difluoro-7-hydroxy-8b-(2-hydroxyacetyl)-6a,8a-dimethyl-1,2,6a,6b,7,8,8a,8b,11a,12,12a,12b-dodecahydro-4H-naphtho[2′,1′:4,5]indeno[1,2-d][1,3]dioxol-4-one]
[3]
  steroid potency as free payloads in LPS-activated human PBMCS (conclusions): varying degrees of dose dependent steroid potency; also recorded: moderate potency
[3]; Experiment 6, 1000-0.16 nM, compared with INX-SM-3
  impact of halogenation of the steroid ring on potency: dose dependent potency
